Source: the supplement of paper PMC10307832

How the values were obtained:
Assay in all cases: relative viability (nuclei count vs DMSO), 5 days (fraction); higher = more cells survive
CX-5461 + Dasatinib = compound: Cc1cnc(CNC(=O)c2c(=O)c3ccc(N4CCCN(C)CC4)nc3n3c2sc2ccccc23)cn1 [CX-5461] + Cc1nc(Nc2ncc(C(=O)Nc3c(C)cccc3Cl)s2)cc(N2CCN(CCO)CC2)n1 [Dasatinib] (partner 0.075 µM)
Summary of the method: (§1)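 One day after seeding in 1536-well plates, lung cancer cell lines were dosed by pin tool. Dosing was either single-drug or a fixed anchor-drug dose plus five library-drug doses (not always all listed) in √10 steps. After 5 days, nuclei were stained in one fix-and-stain step and counted on 4× images, and relative viability is the nuclei count of treated wells over that of vehicle wells, given as the median of duplicate plates.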

IMD-0354 + Tozasertib = compound: O=C(Nc1cc(C(F)(F)F)cc(C(F)(F)F)c1)c1cc(Cl)ccc1O [IMD-0354] + Cc1cc(Nc2cc(N3CCN(C)CC3)nc(Sc3ccc(NC(=O)C4CC4)cc3)n2)n[nH]1 [Tozasertib] (partner 0.1 µM)
Summary of the method: as §1

IMD-0354 + Pemetrexed = compound: O=C(Nc1cc(C(F)(F)F)cc(C(F)(F)F)c1)c1cc(Cl)ccc1O [IMD-0354] + Nc1nc2[nH]cc(CCc3ccc(C(=O)N[C@@H](CCC(=O)O)C(=O)O)cc3)c2c(=O)[nH]1 [Pemetrexed] (partner 0.2 µM)
Summary of the method: as §1

IMD-0354 + Bortezomib = compound: O=C(Nc1cc(C(F)(F)F)cc(C(F)(F)F)c1)c1cc(Cl)ccc1O [IMD-0354] + CC(C)C[C@H](NC(=O)[C@H](Cc1ccccc1)NC(=O)c1cnccn1)B(O)O [Bortezomib] (partner 0.002 µM)
Summary of the method: as §1

Row | Cell Line | relative viability (CX-5461 + Dasatinib; first compound 0.01 µM) | relative viability (CX-5461 + Dasatinib; first compound 0.03162 µM) | relative viability (CX-5461 + Dasatinib; first compound 0.1 µM) | relative viability (CX-5461 + Dasatinib; first compound 0.3162 µM) | relative viability (CX-5461 + Dasatinib; first compound 1 µM) | relative viability (IMD-0354 + Tozasertib; first compound 0.04 µM) | relative viability (IMD-0354 + Tozasertib; first compound 0.1265 µM) | relative viability (IMD-0354 + Tozasertib; first compound 0.4 µM) | relative viability (IMD-0354 + Tozasertib; first compound 1.265 µM) | relative viability (IMD-0354 + Tozasertib; first compound 4 µM) | relative viability (IMD-0354 + Pemetrexed; first compound 0.04 µM) | relative viability (IMD-0354 + Pemetrexed; first compound 0.1265 µM) | relative viability (IMD-0354 + Pemetrexed; first compound 0.4 µM) | relative viability (IMD-0354 + Pemetrexed; first compound 1.265 µM) | relative viability (IMD-0354 + Pemetrexed; first compound 4 µM) | relative viability (IMD-0354 + Bortezomib; first compound 0.04 µM) | relative viability (IMD-0354 + Bortezomib; first compound 0.1265 µM) | relative viability (IMD-0354 + Bortezomib; first compound 0.4 µM) | relative viability (IMD-0354 + Bortezomib; first compound 1.265 µM) | relative viability (IMD-0354 + Bortezomib; first compound 4 µM)
1 | 201T | 0.652 | 0.555 | 0.537 | 0.542 | 0.477 | 1.14 | 0.996 | 0.614 | 1.06 | 0.354 | 0.271 | 0.343 | 0.368 | 0.319 | 0.234 | 1.12 | 1.1 | 0.928 | 0.924 | 0.361
2 | A-427 | 0.811 | 0.8 | 0.758 | – | 0.539 | 0.204 | 0.211 | 0.232 | 0.137 | 0.148 | 1.08 | 0.982 | 0.531 | 0.157 | 0.169 | 1.14 | 1.07 | 0.543 | 0.369 | 0.109
3 | ABC-1 | 0.697 | 0.582 | 0.45 | 0.384 | 0.449 | 0.169 | 0.181 | 0.174 | 0.118 | 0.161 | – | – | – | – | – | 0.35 | 0.332 | 0.343 | 0.213 | 0.218
4 | BEN | 0.322 | 0.271 | 0.313 | 0.377 | 0.279 | 0.53 | 0.51 | 0.329 | 0.468 | 0.452 | 0.815 | 0.758 | 0.506 | 0.373 | 0.322 | 0.874 | 0.964 | 0.462 | 0.296 | 0.217
5 | CAL-12T | 0.521 | 0.356 | 0.329 | 0.39 | 0.205 | 0.399 | 0.307 | 0.242 | 0.278 | 0.111 | 1.37 | 0.916 | 0.574 | 0.559 | 0.204 | 1.03 | 0.963 | 0.682 | 0.177 | 0.18
6 | COR-L23 | 0.477 | 0.495 | 0.438 | 0.46 | 0.226 | 0.197 | 0.159 | 0.175 | 0.0719 | 0.101 | 0.205 | 0.202 | 0.206 | 0.182 | 0.108 | 0.932 | 0.823 | 0.372 | 0.114 | 0.249
7 | COR-L 105 | 0.3 | 0.356 | 0.299 | 0.325 | 0.255 | 0.379 | 0.311 | 0.394 | 0.341 | 0.207 | 1.14 | 1.23 | 0.802 | 0.699 | 0.402 | 0.757 | 0.663 | 0.76 | 0.239 | 0.274
8 | Calu-6 | – | – | – | – | – | – | – | – | – | – | – | – | – | – | – | 1.1 | 1.1 | 0.673 | 0.167 | 0.124
9 | ChaGo-K-1 | 0.57 | 0.57 | 0.575 | 0.469 | 0.253 | 0.226 | 0.196 | 0.236 | 0.171 | 0.176 | 0.26 | 0.259 | 0.269 | 0.23 | 0.208 | 1.39 | 1.21 | 0.67 | 0.326 | 0.39
10 | EBC-1 | – | – | – | – | – | – | – | – | – | – | – | – | – | – | – | 0.54 | 0.59 | 0.471 | 0.184 | 0.195
11 | EKVX | 0.55 | 0.522 | 0.481 | 0.554 | 0.477 | 0.382 | 0.397 | 0.269 | 0.456 | 0.149 | 0.456 | 0.347 | – | 0.234 | 0.201 | 1 | 1.39 | – | 0.716 | 0.187
12 | EMC-BAC-2 | 0.335 | 0.319 | 0.296 | 0.282 | 0.155 | 0.276 | 0.301 | 0.24 | 0.296 | 0.224 | 0.398 | 0.399 | 0.338 | 0.319 | 0.306 | 1.17 | 1.03 | 0.553 | 0.634 | 0.217
13 | EPLC-272H | 0.327 | 0.364 | 0.387 | – | 0.412 | 0.256 | 0.241 | 0.16 | 0.24 | 0.113 | 0.332 | 0.278 | 0.474 | 0.247 | 0.214 | 0.966 | 0.986 | 0.686 | 0.955 | 0.266
14 | H3255 | 0.482 | 0.295 | 0.34 | 0.334 | 0.304 | 0.631 | 0.602 | 0.493 | 0.586 | 0.387 | 0.588 | 0.587 | 0.518 | 0.426 | 0.318 | 0.804 | 0.9 | 0.509 | 0.22 | 0.27
15 | HARA | 0.308 | 0.246 | 0.213 | – | 0.213 | 0.102 | 0.132 | 0.105 | 0.0599 | 0.0875 | 0.318 | 0.271 | 0.207 | 0.202 | 0.151 | 0.948 | 1.13 | 0.543 | 0.122 | 0.213
